B1: Antistasin: "a potent inhibitor of blood coagulation factor Xa from the Mexican leech, Haementeria officinalis" (protein, UniProt P15358 18-136, looked up)
Antistasin: QGPFGPGCEEAGCPEGSACNIITDRCTCSGVRCRMHCPHGFQRSRYGCEFCKCRLEPMKATCDISECPEGMMCSRLTNKCDCKIDINCRKTCPNGLKRDKLGCEYCECRPKRKLIPRLS

Test system: clot lysis / acute reocclusion
Assay: not given
Conditions: dog; cited from earlier work

For “rTAP: "recombinant tick anticoagulant peptide (rTAP)", one of the "protein or polypeptide factor Xa inhibitors" (YNRLCIKPRDWIDECDSNEGGERAYFRNGKGGCDSFWICPEDHTGADYYSSYRDCFNACI; UniProt P17726 1-60, looked up)”, the acute reocclusion is given as “prevent acute reocclusion”.

In the case of “rTAP: "recombinant tick anticoagulant peptide (rTAP)", one of the "protein or polypeptide factor Xa inhibitors" (YNRLCIKPRDWIDECDSNEGGERAYFRNGKGGCDSFWICPEDHTGADYYSSYRDCFNACI; UniProt P17726 1-60, looked up)”, the “recombinant tissue plasminogen activator mediated clot lysis” value is listed as “accelerate the recombinant tissue plasminogen activator mediated clot lysis”.

Test system: arterial thrombosis
Assay: not given
Conditions: canine coronary artery electrolytic lesion model; cited from earlier work

For “rTAP: "recombinant tick anticoagulant peptide (rTAP)", one of the "protein or polypeptide factor Xa inhibitors" (YNRLCIKPRDWIDECDSNEGGERAYFRNGKGGCDSFWICPEDHTGADYYSSYRDCFNACI; UniProt P17726 1-60, looked up)”, the “thrombus mass and time to occlusion” value is given as “reduce thrombus mass and time to occlusion”.

Target: T1, human factor Xa (Homo sapiens, UniProt P00742)
T1 construct: purchased Enzyme Research Laboratories
Assay: Determination of Factor Xa IC50 (cleavage of chromogenic substrate S2765)
Assay type: biochemical
Conditions: 3 pM factor Xa; compound at 1 uM
Description: A. Determination of Factor Xa IC50
These concentrations were achieved by diluting a 21.087 μM stock solution of factor Xa in the appropriate amount of a buffer comprising 10 […], 0.1% BSA, pH 7.4 (HBSA buffer). Accordingly, 5 μL of the compound to be tested in DMSO (2% final) is added to the factor Xa/buffer solution and incubated for 60 minutes at room temperature.
The IC50 is determined by monitoring the increase in […] at 390 nm exicitation, 460 nm emission, with a 455 nm cutoff, in a fluorometric plate reader.

T1 sequence (P00742 235-488 limits assumed): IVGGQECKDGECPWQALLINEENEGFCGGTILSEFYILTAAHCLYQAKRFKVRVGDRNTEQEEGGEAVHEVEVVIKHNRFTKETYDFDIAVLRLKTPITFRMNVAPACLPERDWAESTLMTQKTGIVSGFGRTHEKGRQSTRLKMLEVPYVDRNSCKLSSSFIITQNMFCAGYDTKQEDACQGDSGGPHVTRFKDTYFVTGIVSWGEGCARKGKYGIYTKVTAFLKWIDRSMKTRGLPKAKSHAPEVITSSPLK
T1 sequence (P00742 41-179 partner limits assumed): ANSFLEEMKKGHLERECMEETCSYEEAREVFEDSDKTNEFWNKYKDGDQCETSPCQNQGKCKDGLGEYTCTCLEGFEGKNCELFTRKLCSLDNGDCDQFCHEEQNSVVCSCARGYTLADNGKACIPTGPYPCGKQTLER

In order of rising “Fxa 3 PM % Inhibition at 1 uM” value:
1. N#Cc1ccc(NC(=O)C2CCCN2C(=O)Nc2ccc(Cl)cc2)cc1 (stereo not drawn)  16.58%
2. O=C(Nc1ccc(-c2nnn[nH]2)cc1)C1CCCN1C(=O)Nc1ccc(Cl)cc1 (stereo not drawn)  36.64%
3. NS(=O)(=O)c1ccccc1-c1ccc(NC(=O)[C@@H]2CCCN2C(=O)Nc2ccc(Cl)cc2)c(F)c1  46.5%

Same assay, conditions: 3 pM factor Xa; compound at 4 uM

In order of rising “Fxa 3 PM % Inhibition at 4 uM” value:
1. CC(C)c1ccc(NC(=O)N2CCCC2C(=O)Nc2ccc(-c3ccccc3S(N)(=O)=O)cc2F)cc1 (stereo not drawn)  19.22%
2. Cc1ccc(Cl)cc1NC(=O)N1CCCC1C(=O)Nc1ccc(-c2ccccc2S(N)(=O)=O)cc1F (stereo not drawn)  19.84%
3. CN(C)c1ccc(NC(=O)N2CCCC2C(=O)Nc2ccc(-c3ccccc3S(N)(=O)=O)cc2F)cc1 (stereo not drawn)  19.93%
4. CC(=O)c1cccc(NC(=O)N2CCCC2C(=O)Nc2ccc(-c3ccccc3S(N)(=O)=O)cc2F)c1 (stereo not drawn)  21.04%
5. NS(=O)(=O)c1ccccc1-c1ccc(NC(=O)C2CCCN2C(=O)Nc2cccc(C(F)(F)F)c2)c(F)c1 (stereo not drawn)  21.61%
6. NS(=O)(=O)c1ccccc1-c1ccc(NC(=O)C2CCCN2C(=O)Nc2ccc(C(F)(F)F)cc2)c(F)c1 (stereo not drawn)  25.1%
7. COc1cccc(NC(=O)N2CCCC2C(=O)Nc2ccc(-c3ccccc3S(N)(=O)=O)cc2F)c1 (stereo not drawn)  36.21%
8. NS(=O)(=O)c1ccccc1-c1ccc(NC(=O)C2CCCN2C(=O)Nc2ccccc2F)c(F)c1 (stereo not drawn)  37.21%
9. CCc1ccc(NC(=O)N2CCCC2C(=O)Nc2ccc(-c3ccccc3S(N)(=O)=O)cc2F)cc1 (stereo not drawn)  38.14%
10. Cc1cc(Cl)ccc1NC(=O)N1CCCC1C(=O)Nc1ccc(-c2ccccc2S(N)(=O)=O)cc1F (stereo not drawn)  38.88%
11. NS(=O)(=O)c1ccccc1-c1ccc(NC(=O)C2CCCN2C(=O)Nc2ccc(F)c(Cl)c2)c(F)c1 (stereo not drawn)  41.07%
12. NS(=O)(=O)c1ccccc1-c1ccc(NC(=O)C2CCCN2C(=O)Nc2ccc(Cl)c(Cl)c2)c(F)c1 (stereo not drawn)  41.71%
13. N#Cc1ccc(NC(=O)N2CCCC2C(=O)Nc2ccc(-c3ccccc3S(N)(=O)=O)cc2F)cc1 (stereo not drawn)  51.86%
14. NS(=O)(=O)c1ccccc1-c1ccc(NC(=O)C2CCCN2C(=O)Nc2cccc(Cl)c2)c(F)c1 (stereo not drawn)  55.97%

Same assay, conditions: 1 h, read-out: % at 1 uM (printed in column FXA 30 pM IC50); 30 pM factor Xa; compound at 1 uM

In order of falling inhibition at 1 µM:
1. CO[C@@H]1C[C@H](C(=O)Nc2ccc(N3CCC3=O)cc2F)N(C(=O)Nc2ccc(Cl)cn2)C1  54%
2. O=C(Nc1ccc(NC(=O)[C@H]2C[C@@H](O)CN2C(=O)Nc2ccc(Cl)cc2)cc1)C1CCCC1  36%
3. O=C(Nc1ccc(-c2cncnc2)cc1)[C@H]1C[C@@H](O)CN1C(=O)Nc1ccc(Cl)cc1  32%
4. O=C(Nc1ccc(-n2ccnn2)cc1)[C@H]1C[C@@H](O)CN1C(=O)Nc1ccc(Cl)cc1  26%

Test system: arterial and venous thrombosis
Assay: not given
Conditions: various models of arterial and venous thrombosis; cited from earlier work

For B1, the antithrombotic activity is listed as “displays antithrombotic activity”.

Test system: thrombus formation
Assay: not given
Conditions: rat arteriovenous shunt and venous stasis models; cited from earlier work

In the case of `CC(=N)N1CC[C@H](Oc2ccc([C@H](Cc3ccc4ccc(C(=N)N)cc4c3)C(=O)O)cc2)C1` [DX9065a], the “inhibition of thrombus formation” value is listed as “inhibition of thrombus formation was achieved at doses that had little effect on APTT”.

Test system: venous thrombosis
Assay: not given
Conditions: rabbit model of venous thrombosis; cited from earlier work

For “rTAP: "recombinant tick anticoagulant peptide (rTAP)", one of the "protein or polypeptide factor Xa inhibitors" (YNRLCIKPRDWIDECDSNEGGERAYFRNGKGGCDSFWICPEDHTGADYYSSYRDCFNACI; UniProt P17726 1-60, looked up)”, the fibrin deposition is given as “reduce fibrin deposition”.

Reference: patent US7030141B2, “Inhibitors of factor Xa and other serine proteases involved in the coagulation cascade” (priority 2001, dated 2006)
